Measurements taken from patent US4888174A, “Insecticidal polymeric compositions” (priority 1988, dated 1989).

Experiment: Absorption rate of chlorpyrifos onto LDPE and ethylene/acrylic acid (EAA) pellets
Format: physicochemical
Conditions: 85° C.; for Actual Weight % Chlorpyrifos Found in Copolymer EAA: EAA (Primacor 1430) pellets; for % of Chlorpyrifos Absorbed onto Copolymer EAA: EAA pellets, relative to 0.88% maximum; for Actual Weight % Chlorpyrifos Found in LDPE / % of Chlorpyrifos Absorbed onto LDPE: LDPE pellets; for % of Chlorpyrifos Absorbed onto LDPE: relative to 0.90% maximum
Experimental: A constant temperature oven is set at 85° C. by using a thermowatch controller and an infrared heat lamp. A wide mouth quart jar containing 247.5 g of 749 low density polyethylene (LDPE) or an equivalent amount of Primacor® 1430 pellets is placed into the oven and left overnight. Primacor® is a copolymer of ethylene/acrylic acid (EAA) containing 9 percent (%) by weight acrylic acid. Two and one-half grams of liquid Dursban® insecticide heated to 50° C. are added to each jar to give a calculated concentration of 1 percent chlorpyrifos in the polymer. The Dursban® insecticide contains 99 percent chlorpyrifos and 1 percent inert ingredients. The jar is shaken initially, returned to the oven, and then removed every 5 minutes and reshaken. A first sample of 10 pellets is taken from the jar after 15 minutes. The pellets are placed on an ice water bath for 1 minute, removed with tweezers and placed into a 50 ml beaker. The pellets are rinsed with 5 mls of acetone to remove excess water. The pellets are rinsed with 5 mls of methylene chloride to remove chlorpyrifos coated on the pellet surface. The solvent is decanted after each rinse and the pellets are dried by blowing nitrogen over them for three minutes. The pellets are weighed on an analytical balance, placed into a 2 ounce bottle and the chlorpyrifos absorbed by the pellets is extracted by shaking the pellets with 20 mls of chloroform on an automatic shaker overnight. The chloroform extract, after appropriate dilution, is measured at 292 nanometers wave length on an ultraviolet (UV) spectrophotometer. The absorbence of the sample extract is compared to a standard curve of absorbence from a known concentration of chlorpyrifos in chloroform. The absorption rate for the Primacor® 1430 pellets is determined in the same manner as the LDPE.

[1] = assumed, based on a time of 180 minutes

## CCOP(=S)(OCC)Oc1nc(Cl)c(Cl)cc1Cl [Chlorpyrifos, O,O-diethyl-3,5,6-trichloro-2-pyridyl phosphorothioate]
0 minutes
  Actual Weight % Chlorpyrifos Found in Copolymer EAA: 0.0 Weight %
  % of Chlorpyrifos Absorbed onto Copolymer EAA: 0.0%
  Actual Weight % Chlorpyrifos Found in LDPE: 0.0 Weight %
  % of Chlorpyrifos Absorbed onto LDPE: 0.0%
15 minutes
  Actual Weight % Chlorpyrifos Found in Copolymer EAA: 0.71 Weight %
  % of Chlorpyrifos Absorbed onto Copolymer EAA: 80.7%
  Actual Weight % Chlorpyrifos Found in LDPE: 0.64 Weight %
  % of Chlorpyrifos Absorbed onto LDPE: 71.1%
30 minutes
  Actual Weight % Chlorpyrifos Found in Copolymer EAA: 0.80 Weight %
  % of Chlorpyrifos Absorbed onto Copolymer EAA: 90.9%
  Actual Weight % Chlorpyrifos Found in LDPE: 0.76 Weight %
  % of Chlorpyrifos Absorbed onto LDPE: 84.4%
45 minutes
  Actual Weight % Chlorpyrifos Found in Copolymer EAA: 0.85 Weight %
  % of Chlorpyrifos Absorbed onto Copolymer EAA: 96.6%
  Actual Weight % Chlorpyrifos Found in LDPE: 0.86 Weight %
  % of Chlorpyrifos Absorbed onto LDPE: 95.6%
60 minutes
  Actual Weight % Chlorpyrifos Found in Copolymer EAA: 0.84 Weight %
  % of Chlorpyrifos Absorbed onto Copolymer EAA: 95.5%
  Actual Weight % Chlorpyrifos Found in LDPE: 0.91 Weight %
  % of Chlorpyrifos Absorbed onto LDPE: 101.1%
90 minutes
  Actual Weight % Chlorpyrifos Found in Copolymer EAA: 0.83 Weight %
  % of Chlorpyrifos Absorbed onto Copolymer EAA: 94.3%
  Actual Weight % Chlorpyrifos Found in LDPE: 0.89 Weight %
  % of Chlorpyrifos Absorbed onto LDPE: 98.9%
120 minutes
  Actual Weight % Chlorpyrifos Found in Copolymer EAA: 0.95 Weight %
  % of Chlorpyrifos Absorbed onto Copolymer EAA: 108.0%
  Actual Weight % Chlorpyrifos Found in LDPE: 0.92 Weight %
  % of Chlorpyrifos Absorbed onto LDPE: 102.2%
150 minutes
  Actual Weight % Chlorpyrifos Found in Copolymer EAA: 0.86 Weight %
  % of Chlorpyrifos Absorbed onto Copolymer EAA: 97.7%
  Actual Weight % Chlorpyrifos Found in LDPE: 1.07 Weight %
  % of Chlorpyrifos Absorbed onto LDPE: 118.9%
180 minutes
  Actual Weight % Chlorpyrifos Found in Copolymer EAA: 0.88 Weight %
  % of Chlorpyrifos Absorbed onto Copolymer EAA: 100.0%
  Actual Weight % Chlorpyrifos Found in LDPE: 0.90 Weight %
  % of Chlorpyrifos Absorbed onto LDPE: 100.0%
[1]
  maximum absorption by the Copolymer EAA: 0.88 % by weight
  maximum absorption of chlorpyrifos by the LDPE: 0.90 % by weight
